Assay results taken from patent US20070208040A1, “A2A ADENOSINE RECEPTOR ANTAGONISTS” (priority 2006, published 2007).

Each molecule was assayed against A2A adenosine receptor (UniProt P29274) (assay: A2A radioligand binding assay (displacement of 3H-MSX-2)). Conditions: displacement of 2 nM 3H-MSX-2 from 15 ug A2A membrane, 23° C., 2 hours.
Design: species or system human
Source text: A tritiated adenosine A2A antagonist, 3-(3-hydroxypropyl)-7-methyl-8-(m-methoxystyryl)-1-propargylxanthine, (3H-MSX-2, specific activity: 80 Ci/mmol), was purchased from American Radiolabeled Chemicals, Inc (St. Louis, Mo.). A tritiated adenosine A1 antagonist, 1,3-Dipropyl-8-cyclopentylxanthine ([^3H]DPCPX, specific activity: 120 Ci/mmol) was purchased from Perkin Elmer (Boston, Mass.). A tritiated adenosine A2a antagonist, 4-(2-[7-amino-2-(2-furyl)[1,2,4]triazolo[2,3-a][1,3,5]triazin-5-ylamino]ethyl)phenol ([^3H]ZM241385 specific activity: 27.4 Ci/mmol) was purchased from American Radiolabeled Chemicals, Inc (St. Louis, Mo.). Adenosine Deaminase (ADA) was purchased from Roche Molecular Biochemicals (Nutley, N.J.). GTP was purchased from Sigma. Concentrated stock solution (10 mM) of compounds was dissolved in dimethylsulfoxide (DMSO), stored at −20° C., and diluted in Tris-EDTA buffer (50 mM Tris and 1 mM EDTA, 10 mM MgCl2, pH 7.4) for use in experiments. The final content of dimethylsulfoxide in Tris-EDTA buffer during experiments was not more than 1%. Male Sprague Dawley rats, weighted 250-400 g, 8-10 weeks old, were purchased from Charles River Labs (Wilmington, Mass.).
HEK293 (Human Embryonic Kidney 293) cells stably expressing human A2A adenosine receptor or human A2B adenosine receptor were maintained in DMEM supplemented with 10% fetal bovine serum, 2 mM L-glutamine, 100 IU/ml penicillin, 50 μg/ml streptomycin and 2 μg/ml puromycin. CHO (Chinese Hamster Ovary) cells stably expressing human A1 adenosine receptor or human A3 adenosine receptor were maintained in F12K medium supplemented with 10% fetal bovine serum, 2 mM L-glutamine, 100 IU penicillin, 50 μg streptomycin and 8 μg/ml puromycin. PC12 (rat pheochromocytoma) cells were cultured in F12K medium supplemented with 10% horse serum and 2.5% fetal bovine serum, 2 mM L-glutamine, 100 IU/ml penicillin, and 50 μg/ml streptomycin. All cells were maintained at 37° C. in a humidified 5% CO2/95% air incubator and recultivated 2 times per week.
Cultured cells in 150 mm^2 dishes were washed once with PBS, detached by scrapping, collected with buffer A (10 mM HEPES, 10 mM EDTA, pH 7.4) containing protease inhibitor cocktail. Cells were then homogenized by a handheld homogenizer at a speed of 4.5 for 1 min. The homogenate was centrifuged by a Beckman ultracentrifuge at a speed of 29,000 × g for 15 min. The pellets were resuspended in buffer HE (10 mM HEPES, 1 mM EDTA, pH 7.4, with protease inhibitor cocktail), centrifuged again at 29,000 × g for 15 min. The crude membrane was resuspended using buffer HE, and protein concentration was measured by the method of Lowery with BSA as standard. Similar procedures were used for membrane preparation for fresh rat tissues. All experimental procedures were done at 4° C. Membranes were aliquot and kept at −80° C.
The binding assays utilized 15 ug of A2A membrane (human recombinant A2A membrane, rat striatal membrane, or PC 12 cell membrane) that had been treated with adenosine deaminase and 50 mM Tris-EDTA buffer (pH=7.4) followed by mixing 2 μL of serially diluted DMSO stock solution of the compounds of this invention at concentrations ranging from 10 μM to 0.1 nM or the control received 2 μL of DMSO alone, then the tritiated antagonist 3-(3-hydroxypropyl)-7-methyl-8-(m-methoxystyryl)-1-propargylxanthine (^3H-MSX-2) in Tris-EDTA buffer (50 mM Tris, 1 mM EDTA, 10 mM MgCl2, pH of 7.4) was added to achieve a final concentration of 2 nM. After incubation at 23° C. for 2 hours, the solutions were filtered using a membrane harvester with multiple washing of the membranes (3×). The filter plates were counted in scintillation cocktail affording the amount of displacement ^3H-MSX-2 by the competitive binding compositions of this invention. Radioligand binding data was analyzed using GraphPad Prism version 4.0 (San Diego, Calif.). […]

Row | Structure (SMILES) | Ki
1 | C#CCn1c(=O)[nH]c2scc(C)c2c1=O [IX, 5-methyl-3-prop-2-ynyl-1,3-dihydrothiopheno[2,3-d]pyrimidine-2,4-dione] | 365 nM
2 | Cc1c(C2=N[C@@H](C)CO2)sc2[nH]c(=O)n(CC(C)C)c(=O)c12 [LI, 6-((4S)-4-methyl(1,3-oxazolin-2-yl))-5-methyl-3-(2-methylpropyl)-1,3-dihydrothiopheno[2,3-d]pyrimidine-2,4-dione] | 48 nM
3 | C#CCn1c(=O)c2c(C)csc2n(C)c1=O [LII, 1,5-dimethyl-3-prop-2-ynyl-1,3-dihydrothiopheno[2,3-d]pyrimidine-2,4-dione] | 720 nM
4 | Cc1c(C2=N[C@@H](C)CO2)sc2c1c(=O)n(CC(C)C)c(=O)n2C [LIII, 6-((4S)-4-methyl(1,3-oxazolin-2-yl))-1,5-dimethyl-3-(2-methylpropyl)-1,3-dihydrothiopheno[2,3-d]pyrimidine-2,4-dione] | 304 nM
5 | Cc1c(C2=NC[C@@H](C)O2)sc2c1c(=O)n(CC(C)C)c(=O)n2C [LIX, 6-((5R)-5-methyl(1,3-oxazolin-2-yl))-1,5-dimethyl-3-(2-methylpropyl)-1,3-dihydrothiopheno[2,3-d]pyrimidine-2,4-dione] | 450 nM
6 | Cc1c(C2=NC[C@@H](C)O2)sc2[nH]c(=O)n(CC(C)C)c(=O)c12 [LVII, 6-((5R)-5-methyl(1,3-oxazolin-2-yl))-5-methyl-3-(2-methylpropyl)-1,3-dihydrothiopheno[2,3-d]pyrimidine-2,4-dione] | 239 nM
7 | CC[C@H]1COC(c2sc3c(c2C)c(=O)n(CC(C)C)c(=O)n3C)=N1 [LVIII, 6-((4S)-4-ethyl(1,3-oxazolin-2-yl))-1,5-dimethyl-3-(2-methylpropyl)-1,3-dihydrothiopheno[2,3-d]pyrimidine-2,4-dione] | 119 nM
8 | CNC(=O)c1sc2[nH]c(=O)n(C)c(=O)c2c1C [VIII, (3,5-dimethyl-2,4-dioxo(1,3-dihydrothiopheno[2,3-d]pyrimidin-6-yl))-n-methylcarboxamide] | 274 nM
9 | CCn1c(=O)[nH]c2sc3c(c2c1=O)CCCC3 [XI, 3-ethyl-1,3,5,6,7,8-hexahydrobenzo[b]thiopheno[2,3-d]pyrimidine-2,4-dione] | 458 nM
10 | Cc1csc2[nH]c(=O)n(C)c(=O)c12 [XIII, 3,5-dimethyl-1,3-dihydrothiopheno[2,3-d]pyrimidine-2,4-dione] | 648 nM
11 | Cc1csc2[nH]c(=O)n(CC(C)C)c(=O)c12 [XIX, 5-methyl-3-(2-methylpropyl)-1,3-dihydrothiopheno[2,3-d]pyrimidine-2,4-dione] | 780 nM
12 | Cc1c(-c2ncco2)sc2c1c(=O)n(CC(C)C)c(=O)n2C [XL, 1,5-dimethyl-3-(2-methylpropyl)-6-(1,3-oxazol-2-yl)-1,3-dihydrothiopheno[2,3-d]pyrimidine-2,4-dione] | 347 nM
13 | CCCn1c(=O)[nH]c2sc(C(=O)O)c(C)c2c1=O [XLI, 5-methyl-2,4-dioxo-3-propyl-1,3-dihydrothiopheno[2,3-d]pyrimidine-6-carboxylic acid] | 569 nM
14 | CCn1c(=O)n(CC(C)C)c(=O)c2c(C)c(-c3ccco3)sc21 [XLIV, 1-ethyl-6-(2-furyl)-5-methyl-3-(2-methylpropyl)-1,3-dihydrothiopheno[2,3-d]pyrimidine-2,4-dione] | 457 nM
15 | CCn1c(=O)c2c(C)c(-c3ccoc3)sc2n(C)c1=O [XLVI, 3-ethyl-6-(3-furyl)-1,5-dimethyl-1,3-dihydrothiopheno[2,3-d]pyrimidine-2,4-dione] | 546 nM

The next lines start with the values.

Row | Ki | Structure (SMILES)
16 | 76 nM | Cc1c(-c2ccco2)sc2[nH]c(=O)n(CC(C)C)c(=O)c12 [Example I, 6-(2-furyl)-5-methyl-3-(2-methylpropyl)-1,3-dihydrothiopheno[2,3-d]pyrimidine-2,4-dione]
17 | 88 nM | CCn1c(=O)[nH]c2sc(-c3ccoc3)c(C)c2c1=O [II, 3-ethyl-6-(3-furyl)-5-methyl-1,3-dihydrothiopheno[2,3-d]pyrimidine-2,4-dione]
18 | 97 nM | CCn1c(=O)[nH]c2sc(-c3cccs3)c(C)c2c1=O [III, 3-ethyl-5-methyl-6-(2-thienyl)-1,3-dihydrothiopheno[2,3-d]pyrimidine-2,4-dione]
19 | 105 nM | CCn1c(=O)[nH]c2sc(-c3ccco3)c(C)c2c1=O [IV, 3-ethyl-6-(2-furyl)-5-methyl-1,3-dihydrothiopheno[2,3-d]pyrimidine-2,4-dione]
20 | 485 nM | CCn1c(=O)c2c(C)c(-c3ccccn3)sc2n(C)c1=O [L, 3-ethyl-1,5-dimethyl-6-(2-pyridyl)-1,3-dihydrothiopheno[2,3-d]pyrimidine-2,4-dione]
21 | 406 nM | CCn1c(=O)[nH]c2sc(-c3ccc(OC)nc3)c(C)c2c1=O [LIV, 3-ethyl-6-(6-methoxy(3-pyridyl))-5-methyl-1,3-dihydrothiopheno[2,3-d]pyrimidine-2,4-dione]
22 | 529 nM | CCn1c(=O)[nH]c2sc(-c3cccnc3OC)c(C)c2c1=O [LV, 3-ethyl-6-(2-methoxy(3-pyridyl))-5-methyl-1,3-dihydrothiopheno[2,3-d]pyrimidine-2,4-dione]
23 | 58 nM | CC[C@H]1COC(c2sc3[nH]c(=O)n(CC(C)C)c(=O)c3c2C)=N1 [LVI, 6-((4S)-4-ethyl(1,3-oxazolin-2-yl))-5-methyl-3-(2-methylpropyl)-1,3-dihydrothiopheno[2,3-d]pyrimidine-2,4-dione]
24 | 134 nM | CCn1c(=O)[nH]c2sc(-c3ncco3)c(C)c2c1=O [V, 3-ethyl-5-methyl-6-(1,3-oxazol-2-yl)-1,3-dihydrothiopheno[2,3-d]pyrimidine-2,4-dione]
25 | 137 nM | CCn1c(=O)[nH]c2scc(-c3ccco3)c2c1=O [VI, 3-ethyl-5-(2-furyl)-1,3-dihydrothiopheno[2,3-d]pyrimidine-2,4-dione]
26 | 152 nM | CCn1c(=O)[nH]c2sc(C3=NCCO3)c(C)c2c1=O [VII, 3-ethyl-5-methyl-6-(1,3-oxazolin-2-yl)-1,3-dihydrothiopheno[2,3-d]pyrimidine-2,4-dione]
27 | 397 nM | CCn1c(=O)[nH]c2scc(C)c2c1=O [X, 3-ethyl-5-methyl-1,3-dihydrothiopheno[2,3-d]pyrimidine-2,4-dione]
28 | 559 nM | CCn1c(=O)[nH]c2sc(-c3ccsc3)c(C)c2c1=O [XII, 3-ethyl-5-methyl-6-(3-thienyl)-1,3-dihydrothiopheno[2,3-d]pyrimidine-2,4-dione]
29 | 769 nM | CCn1c(=O)[nH]c2sc(C(=O)N[C@H](C)CO)c(C)c2c1=O [XLII, N—((1R)-2-hydroxy-isopropyl)(3-ethyl-5-methyl-2,4-dioxo(1,3-dihydrothiopheno[2,3-d]pyrimidin-6-yl))carboxamide]
30 | 93 nM | CCn1c(=O)[nH]c2sc(C3=N[C@@H](C)CO3)c(C)c2c1=O [XLIII, 6-((4S)-4-methyl(1,3-oxazolin-2-yl))-3-ethyl-5-methyl-1,3-dihydrothiopheno[2,3-d]pyrimidine-2,4-dione]
31 | 488 nM | CCn1c(=O)c2c(C)c(-c3ccc[nH]3)sc2n(C)c1=O [XLIX, 3-ethyl-1,5-dimethyl-6-pyrrol-2-yl-1,3-dihydrothiopheno[2,3-d]pyrimidine-2,4-dione]
32 | 95 nM | CCCn1c(=O)[nH]c2sc(C3=N[C@@H](C)CO3)c(C)c2c1=O [XLV, 6-((4S)-4-methyl(1,3-oxazolin-2-yl))-5-methyl-3-propyl-1,3-dihydrothiopheno[2,3-d]pyrimidine-2,4-dione]
